Assay results published in PMC7617969, “Carboxylic Acid Bioisosteres Boost Nurr1 Agonist Selectivity” (Journal of medicinal chemistry, 2025).

How the values were obtained:
[1] = system: N27 rat dopaminergic neural cells; assay: Nurr1-regulated gene expression (qPCR); type: cell-based; conditions: N27 cells, 0.3, 1 or 3 μM, 21 h, referenced to GAPDH
recombinant Nurr1 LBD = target: T1, recombinant Nurr1 LBD (Homo sapiens, UniProt P43354); assay: Isothermal titration calorimetry (ITC); type: binding; conditions: 25 °C
T1 construct: Nurr1 LBD protein (15 μM, expressed as described previously[18]); made in house
T1 sequence (P43354 360-595 limits assumed): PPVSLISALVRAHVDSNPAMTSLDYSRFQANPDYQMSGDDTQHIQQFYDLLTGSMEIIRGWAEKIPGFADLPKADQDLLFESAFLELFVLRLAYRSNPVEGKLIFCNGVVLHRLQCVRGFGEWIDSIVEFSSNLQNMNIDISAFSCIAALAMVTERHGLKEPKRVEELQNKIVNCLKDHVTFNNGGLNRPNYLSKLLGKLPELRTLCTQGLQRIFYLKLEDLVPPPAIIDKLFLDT
Description: ITC experiments were conducted on an Affinity ITC instrument (TA Instruments, New Castle, DE, USA) at 25 °C with a stirring rate of 75 rpm. Nurr1 LBD protein (15 μM, expressed as described previously[18]) in buffer (20 mM Tris, pH 7.5, 100 mM NaCl, 5% glycerol) containing 5% DMSO was titrated with 32 (100 μM in the same buffer containing […]) in 21 injections (1 × 1 µL and 20 × 4 μL) with an injection interval of 120 s. As control experiments, the test compound was titrated to the buffer, and the buffer was titrated to the Nurr1 LBD protein under otherwise identical conditions. The heats of the compound−protein titration were analyzed using NanoAnalyze software (version 3.11.0, TA Instruments) with independent binding model.

Nur77 = target: T2, Nur77 (Homo sapiens, UniProt P22736); assay: Gal4-Nur77 hybrid reporter gene assay; type: cell-based
T2 construct: expressed in transfected cells; host or cells: HEK293T
T2 sequence (P22736 360-595 limits assumed): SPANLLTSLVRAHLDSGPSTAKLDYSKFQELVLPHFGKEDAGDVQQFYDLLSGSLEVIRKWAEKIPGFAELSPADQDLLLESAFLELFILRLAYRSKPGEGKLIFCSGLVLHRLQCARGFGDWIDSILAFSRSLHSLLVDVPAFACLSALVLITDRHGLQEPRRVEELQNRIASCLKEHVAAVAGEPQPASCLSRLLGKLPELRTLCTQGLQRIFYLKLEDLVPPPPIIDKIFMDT
Description: NR modulation was determined in Gal4 hybrid reporter gene assays in HEK293T cells (German Collection of Microorganisms and Cell Culture GmbH, DSMZ) using pFR-Luc (Stratagene, La Jolla, CA, USA; reporter), pRL-SV40 (Promega, Madison, WI, USA; internal control) and pFA-CMV-hNR-LBD[47],[48] plasmids coding for the hinge region and ligand binding domain of the canonical isoform of the respective NR. Cells were cultured in Dulbecco’s modified Eagle’s medium (DMEM), high glucose supplemented with 10% fetal calf serum (FCS), sodium pyruvate (1 mM), penicillin (100 U/mL), and streptomycin (100 μg/mL) at 37°C and 5% CO2 and seeded in 96-well plates (3×10^4 cells/well). […] Five hours after transfection, cells were incubated with the test compounds in Opti-MEM supplemented with penicillin (100 U/mL), streptomycin (100 μg/mL) and 0.1% DMSO for 16 h before luciferase activity was measured using the Dual-Glo Luciferase Assay System (Promega) according to the manufacturer’s protocol on a Tecan Spark luminometer (Tecan Deutschland GmbH, Crailsheim, Germany). Firefly luminescence was divided by Renilla luminescence and multiplied by 1000 resulting in relative light units (RLU) to normalize for transfection efficiency and cell growth. […]

rDHODH = target: T3, rDHODH (Rattus norvegicus, UniProt Q63707); assay: rat DHODH inhibition assay; type: biochemical, rats
T3 construct: using an N-terminally truncated recombinant DHODH enzyme as described previously[20]
T3 sequence (Q63707 31-395): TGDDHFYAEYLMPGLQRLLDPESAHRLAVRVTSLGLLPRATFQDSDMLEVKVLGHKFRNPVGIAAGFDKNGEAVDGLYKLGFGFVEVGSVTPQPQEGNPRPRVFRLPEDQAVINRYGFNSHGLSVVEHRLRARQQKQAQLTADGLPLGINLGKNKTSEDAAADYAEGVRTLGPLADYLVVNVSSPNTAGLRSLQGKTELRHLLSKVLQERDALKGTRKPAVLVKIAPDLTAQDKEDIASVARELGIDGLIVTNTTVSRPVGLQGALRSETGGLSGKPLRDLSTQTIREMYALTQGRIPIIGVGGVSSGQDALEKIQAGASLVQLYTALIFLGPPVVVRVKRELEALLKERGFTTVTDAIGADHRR
Description: Inhibition of DHODH was measured in vitro using an N-terminally truncated recombinant DHODH enzyme as described previously. The final assay mixture contained 60 μM 2,6-dichloroindophenol, 50 μM decylubiquinone, 100 μM dihydroorotate, and the DHODH protein whose concentration was adjusted in a way that an average slope of approx. 0.2 AU/min served as the positive control (no inhibitor). Measurements were performed in 50 mM TrisHCl, 150 mM KCl, and 0.1% Triton X-100 at pH 8.0 and at 30°C with at least six different concentrations of a test compound. The reaction was started by adding dihydroorotate and measuring the absorption at 600 nm for 2 min. Each test compound concentration used for IC50 calculation was tested in at least three independent experiments.

DHODH = target: T4, DHODH (Homo sapiens, UniProt Q02127); assay: DHODH inhibition colorimetric assay on recombinant human protein; type: biochemical; conditions: recombinant human DHODH, colorimetric; mean ± S.E.M., n ≥ 3; read-out: IC50 (DHODH)
T4 construct: using an N-terminally truncated recombinant DHODH enzyme as described previously[20]
T4 sequence (Q02127 31-395): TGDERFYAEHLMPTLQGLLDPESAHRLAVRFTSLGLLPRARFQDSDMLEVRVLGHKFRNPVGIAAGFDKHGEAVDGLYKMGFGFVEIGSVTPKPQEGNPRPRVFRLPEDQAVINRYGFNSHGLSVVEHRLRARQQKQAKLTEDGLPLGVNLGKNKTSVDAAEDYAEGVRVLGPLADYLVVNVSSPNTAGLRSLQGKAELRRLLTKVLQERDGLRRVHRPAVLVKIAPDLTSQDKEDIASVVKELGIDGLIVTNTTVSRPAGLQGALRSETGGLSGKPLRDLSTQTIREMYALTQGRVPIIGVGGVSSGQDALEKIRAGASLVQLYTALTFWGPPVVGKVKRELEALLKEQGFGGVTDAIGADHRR

Q: For COc1cccc(-c2ccc(NC(=O)C3=C(c4nn[nH]n4)CCC3)c(F)c2)c1 [compound 32, N-{3-Fluoro-3’-methoxy-[1,1'-biphenyl]-4-yl}-2-(2H-tetrazol-5-yl)cyclopent-1-ene-1-carboxamide], which “BDNF mRNA expression” value [1] is on record?
A: enhanced expression

Q: What about the “BIRC5 mRNA expression” value [1] of the same compound?
A: robust induction

Q: And the “CCND2 mRNA expression” value [1]?
A: enhanced expression

Q: What about the “CRMP4 mRNA expression” value [1] of the same compound?
A: enhanced expression

Q: And the “FLRT2 mRNA expression” value [1]?
A: enhanced expression

Q: And the “SOD2 mRNA expression” value [1]?
A: robust induction

Q: And the “Sesn3 mRNA expression” value [1]?
A: robust induction

Q: And the “TH mRNA expression” value [1]?
A: enhanced the expression

Q: What about the “XIAP mRNA expression” value [1] of the same compound?
A: robust induction

Q: What about the Kd (recombinant Nurr1 LBD) of the same compound?
A: 200 nM

Q: And the EC50 (Nur77)?
A: 160 ± 30 nM

Q: And the “fold activation (Nur77)” value (Nur77)?
A: 1.9 fold

Q: And the inhibition at 100 µM (rDHODH)?
A: 64 ± 2%

Q: What about the IC50 (DHODH) of the same compound?
A: 10 ± 2 µM
